Test results from patent publication US9221838B2, “Inhibitors of AKT activity” (ALMAC DISCOVERY LIMITED, priority 2009, dated 2015).
One block for each molecule: values may come before it.

Tests used:
Format in all cases: biochemical
[1] = molecular target: T1, AKT3 (Homo sapiens, UniProt Q9Y243); experiment: AKT Kinase Assay (IMAP fluorescent polarisation) vs AKT3
T1 construct: purchased SignalChem
Procedure: (§1) Testing of the compounds was performed using an AKT Kinase Assay:
(§2) Activated AKT isoforms 1, 2 and 3 were assayed utilising a 5′ FAM Crosstide (Seq. GRPRTSSFAEG-OH)(SEO ID NO: 1). The extent of kinase phosphorylation was determined by fluorescent polarisation using IMAP progressive binding reagent, which introduces binding beads which allow the reagent to specifically bind to phosphate residues via covalent co-ordination complex bonds.
(§3) iMAP binding solution stops Crosstide/kinase interaction and specifically binds phosphorylated substrates. The degree of phosphorylation is determined by fluorescent polarisation (excitation 485 nm; emission 528 nm) or the reduction in speed of rotation of the excited substrate.
(§4) The following materials were used in the assay: • a) Activated AKT isoforms (SignalChem.) dissolved in Complete Reaction buffer at a pre-determined concentration selected so that the assay was carried out in the linear range. • b) AKT substrate peptide: FAM Crosstide (R7110) Molecular Devices, diluted in complete reaction buffer. • c) iMAP Progressive Screening Express Kit (R8127) Molecular Devices • d) Complete Reaction Buffer containing 0.1% BSA, 10 mM Tris-HCl, 10 mM MgCl2, 0.05% NaN3 and 0.01% phosphate free BSA, 1 mM DTT • e) Progressive Binding Solution containing 75% Buffer A, 25% Buffer B and low volume Binding Reagent which contains the binding entity for the assay • f) ATP diluted in complete reaction buffer • g) Black polystyrene 384 well assay plates (Nunc). • h) Biotek Synergy 4 Hybrid Plate reader.
(§5) 5 μl of test compound was dissolved in DMSO (Sigma Aldrich) and serially diluted in complete reaction buffer to give a fourteen point half log dose response and plated into 384 well black plates. The compound was incubated at room temperature with activated AKT isoform ([…] ) at the pre-determined concentration, for 45 minutes.
(§6) 2.5 μl of ATP solution mixed with 2.5 μl of AKT substrate peptide (FAM Crosstide (R7110) Molecular Devices) were dispensed into each well and the plate centrifuged at 1000 rpm for 20 seconds to ensure homogenous mixing of reagents. The reaction mix was incubated in the dark for one hour at room temperature.
(§7) The kinase reaction was stopped by the addition of Progressive Binding Solution and the mixture allowed to equilibrate for one hour in the dark, at room temperature.
(§8) The fluorescent polarisation generated in each well was determined using a […] Synergy 4 Hybrid plate reader. In brief, each reaction solution was excited at 485 nm with the emission measured at 528 nm in both the parallel and perpendicular pathway.
(§9) The polarisation value generated in each well was calculated by Gen5 software (Biotek) and the % inhibition of kinase activity compared to vehicle control was calculated via GraphPad Prism. IC50 values for each compound were calculated by non-linear regression analysis using Prism software.
(§10) All plates were internally controlled by two methods. Firstly, by calculating the signal:noise ratio; based on kinase polarisation without inhibitor and polarisation generated by complete reaction buffer in the absence of activated kinase. Secondly by determining IC50 values generated by known inhibitors of the AKT isoforms.

[2] = molecular target: T2, AKT1 (Homo sapiens, UniProt P31749); experiment: AKT Kinase Assay (IMAP fluorescent polarisation) vs AKT1
T2 construct: purchased SignalChem
T2 sequence (P31749 whole entry): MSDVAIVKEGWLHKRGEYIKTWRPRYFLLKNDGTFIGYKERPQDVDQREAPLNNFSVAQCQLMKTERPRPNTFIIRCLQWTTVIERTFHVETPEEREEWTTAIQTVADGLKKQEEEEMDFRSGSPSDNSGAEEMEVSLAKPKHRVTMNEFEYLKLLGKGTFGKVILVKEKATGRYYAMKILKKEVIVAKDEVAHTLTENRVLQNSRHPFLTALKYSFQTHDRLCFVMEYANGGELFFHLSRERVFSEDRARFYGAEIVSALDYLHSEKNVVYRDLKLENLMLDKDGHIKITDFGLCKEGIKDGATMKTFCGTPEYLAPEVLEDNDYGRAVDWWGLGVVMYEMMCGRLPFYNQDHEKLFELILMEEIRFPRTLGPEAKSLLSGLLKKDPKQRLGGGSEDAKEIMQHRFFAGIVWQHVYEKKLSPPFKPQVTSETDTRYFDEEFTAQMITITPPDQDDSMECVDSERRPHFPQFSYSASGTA
Procedure: as §1, §2, §3, §4, §5, §6, §7, §8, §9, §10

[3] = molecular target: T3, AKT2 (Homo sapiens, UniProt P31751); experiment: AKT Kinase Assay (IMAP fluorescent polarisation) vs AKT2
T3 construct: purchased SignalChem
T3 sequence (P31751 whole entry): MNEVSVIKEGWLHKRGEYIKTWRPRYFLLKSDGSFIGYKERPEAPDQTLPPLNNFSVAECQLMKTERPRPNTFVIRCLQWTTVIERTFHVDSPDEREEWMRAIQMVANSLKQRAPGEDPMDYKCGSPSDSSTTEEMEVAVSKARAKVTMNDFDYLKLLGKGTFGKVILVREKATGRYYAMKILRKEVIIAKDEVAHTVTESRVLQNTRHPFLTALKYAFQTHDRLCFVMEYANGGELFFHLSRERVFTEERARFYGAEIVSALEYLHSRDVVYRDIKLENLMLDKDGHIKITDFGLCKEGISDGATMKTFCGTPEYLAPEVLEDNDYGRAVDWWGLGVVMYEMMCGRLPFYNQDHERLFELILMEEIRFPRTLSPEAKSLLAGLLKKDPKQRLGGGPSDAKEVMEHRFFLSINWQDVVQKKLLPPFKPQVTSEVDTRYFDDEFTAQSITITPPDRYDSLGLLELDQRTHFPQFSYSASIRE
Procedure: as §1, §2, §3, §4, §5, §6, §7, §8, §9, §10

T1 sequence (Q9Y243 whole entry): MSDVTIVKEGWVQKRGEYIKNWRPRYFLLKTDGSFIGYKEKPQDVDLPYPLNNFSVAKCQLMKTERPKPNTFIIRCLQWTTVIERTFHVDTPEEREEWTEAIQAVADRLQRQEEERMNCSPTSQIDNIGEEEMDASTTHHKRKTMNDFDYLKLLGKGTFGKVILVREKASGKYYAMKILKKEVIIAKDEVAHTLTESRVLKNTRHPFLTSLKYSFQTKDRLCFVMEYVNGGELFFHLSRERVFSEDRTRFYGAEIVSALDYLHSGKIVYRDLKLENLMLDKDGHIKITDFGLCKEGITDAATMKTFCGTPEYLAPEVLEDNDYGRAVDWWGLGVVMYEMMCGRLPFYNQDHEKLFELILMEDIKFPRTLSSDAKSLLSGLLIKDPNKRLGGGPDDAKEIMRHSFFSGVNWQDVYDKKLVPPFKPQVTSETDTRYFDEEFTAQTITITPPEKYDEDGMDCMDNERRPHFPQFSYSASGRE

Compound: COCC1Oc2nc(-c3ccc(C4(N)CCC4)cc3)c(-c3ccccc3)cc2N(CC#N)C1=O (stereo not drawn) [Example 95, 2-(6-(4-(1-aminocyclobutyl)phenyl)-3-(methoxymethyl)-2-oxo-7-phenyl-2,3-dihydro-1H-pyrido[2,3-b][1,4]oxazin-1-yl)acetonitrile]
- IC50 [1]: > 10 µM
- IC50 [2]: 0.1 to 1 µM
- IC50 [3]: 0.1 to 1 µM

Compound: NC1(c2ccc(-c3nc4c(cc3-c3ccccc3)-c3n[nH]c(NCCO)c3CC4)cc2)CCC1 [Example 12, 2-((7-(4-(1-aminocyclobutyl)phenyl)-8-phenyl-4,5-dihydro-2H-pyrazolo[3,4-f]quinolin-3-yl)amino)ethanol]
- IC50 [1]: > 10 µM
- IC50 [2]: ≤ 0.1 µM
- IC50 [3]: 1 to 10 µM

Compound: NC1(c2ccc(-c3nc4c(cc3-c3ccccc3)-c3n[nH]c(=O)n3CC4)cc2)CCC1 [Example 26, 8-(4-(1-aminocyclobutyl)phenyl)-9-phenyl-5,6-dihydro-[1,2,4]triazolo[3,4][1,6]naphthyridin-3(2H)-one]
- IC50 [1]: > 10 µM
- IC50 [2]: ≤ 0.1 µM
- IC50 [3]: 1 to 10 µM

Compound: CN1C(=O)COc2nc(-c3ccc(C4(N)CCC4)cc3)c(CC3CC3)cc21 [Example 133, 6-(4-(1-aminocyclobutyl)phenyl)-7-(cyclopropylmethyl)-1-methyl-1H-pyrido[2,3-b][1,4]oxazin-2(3H)-one]
- IC50 [1]: > 10 µM
- IC50 [2]: 1 to 10 µM
- IC50 [3]: > 10 µM

Compound: NC1(c2ccc(-c3nc4c(cc3-c3ccccc3)N(CCO)C(=O)CO4)cc2)CCC1 [Example 68, 6-(4-(1-aminocyclobutyl)phenyl)-1-(2-hydroxyethyl)-7-phenyl-1H-pyrido[2,3-b][1,4]oxazin-2(3H)-one]
- IC50 [1]: > 10 µM
- IC50 [2]: 0.1 to 1 µM
- IC50 [3]: 0.1 to 1 µM

Compound: NCc1ccc(-c2nc3c(cc2-c2ccccc2)N(CC2CC2)C(=O)CO3)cc1 [Example 153, 6-(4-(Aminomethyl)phenyl)-1-(cyclopropylmethyl)-7-phenyl-1H-pyrido[2,3-b][1,4]oxazin-2(3H)-one]
- IC50 [1]: > 10 µM
- IC50 [2]: 1 to 10 µM
- IC50 [3]: 1 to 10 µM

Compound: NC1(c2ccc(-c3nc4c(cc3-c3ccccc3)C(=O)CCCC4)cc2)CCC1 [Example 20, 2-(4-(1-aminocyclobutyl)phenyl)-3-phenyl-6,7,8,9-tetrahydro-5H-cyclohepta[b]pyridin-5-one]
- IC50 [1]: > 10 µM
- IC50 [2]: 0.1 to 1 µM
- IC50 [3]: 1 to 10 µM

Compound: COCC1Oc2nc(-c3ccc(C4(N)CCC4)cc3)c(-c3ccccc3)cc2N(C)C1=O (stereo not drawn) [Example 96, 6-(4-(1-aminocyclobutyl)phenyl)-3-(methoxymethyl)-1-methyl-7-phenyl-1H-pyrido[2,3-b][1,4]oxazin-2(3H)-one]
- IC50 [1]: > 10 µM
- IC50 [2]: 0.1 to 1 µM
- IC50 [3]: 1 to 10 µM

Compound: C[C@]1(O)C[C@@](N)(c2ccc(-c3nc4c(cc3-c3ccccc3)N(CC#N)C(=O)CO4)cc2)C1 [Example 150, 2-(6-(4-((1r,3r)-1-amino-3-hydroxy-3-methylcyclobutyl)phenyl)-2-oxo-7-phenyl-2,3-dihydro-1H-pyrido[2,3-b][1,4]oxazin-1-yl)acetonitrile]
- IC50 [1]: 1 to 10 µM
- IC50 [2]: ≤ 0.1 µM
- IC50 [3]: ≤ 0.1 µM

Compound: CC(CO)(CO)CN1C(=O)COc2nc(-c3ccc(C4(N)CCC4)cc3)c(-c3ccccc3)cc21 [Example 106, 6-(4-(1-aminocyclobutyl)phenyl)-1-(3-hydroxy-2-(hydroxymethyl)-2-methylpropyl)-7-phenyl-1H-pyrido[2,3-b][1,4]oxazin-2(3H)-one]
- IC50 [1]: 1 to 10 µM
- IC50 [2]: 0.1 to 1 µM
- IC50 [3]: 0.1 to 1 µM

Compound: CC(C#N)N1C(=O)COc2nc(-c3ccc(C4(N)CCC4)cc3)c(-c3ccccc3)cc21 (stereo not drawn) [Example 54, 2-(6-(4-(1-aminocyclobutyl)phenyl)-2-oxo-7-phenyl-2,3-dihydro-1H-pyrido[2,3-b][1,4]oxazin-1-yl)propanenitrile]
- IC50 [1]: 1 to 10 µM
- IC50 [2]: 0.1 to 1 µM
- IC50 [3]: 0.1 to 1 µM

Compound: NC1(c2ccc(-c3nc4c(cc3-c3ccccc3)-n3c(nnc3-c3ccncc3)CO4)cc2)CCC1 [Example 123, 1-(4-(8-phenyl-1-(pyridin-4-yl)-4H-pyrido[2,3-b][1,2,4]triazolo[4,3-d][1,4]oxazin-7-yl)phenyl)cyclobutanamine]
- IC50 [1]: 1 to 10 µM
- IC50 [2]: ≤ 0.1 µM
- IC50 [3]: 1 to 10 µM

Compound: CN1CCC(=O)N(C)c2cc(-c3ccccc3)c(-c3ccc(C4(N)CCC4)cc3)nc21 [Example 111, 7-(4-(1-aminocyclobutyl)phenyl)-1,5-dimethyl-8-phenyl-4,5-dihydro-1H-pyrido[2,3-b][1,4]diazepin-2(3H)-one]
- IC50 [1]: > 10 µM
- IC50 [2]: 1 to 10 µM
- IC50 [3]: 1 to 10 µM

Compound: CN1C(=O)COc2nc(-c3ccc(C4(N)CCC4)cc3)c(-c3cccs3)cc21 [Example 126, 6-(4-(1-aminocyclobutyl)phenyl)-1-methyl-7-(thiophen-2-yl)-1H-pyrido[2,3-b][1,4]oxazin-2(3H)-one]
- IC50 [1]: 1 to 10 µM
- IC50 [2]: 0.1 to 1 µM
- IC50 [3]: 0.1 to 1 µM

Compound: CC1(C)CC(=O)c2cc(-c3ccccc3)c(-c3ccc(C4(N)CCC4)cc3)nc2C1 [Example 18, 2-(4-(1-aminocyclobutyl)phenyl)-7,7-dimethyl-3-phenyl-7,8-dihydroquinolin-5(6H)-one]
- IC50 [1]: > 10 µM
- IC50 [2]: 1 to 10 µM
- IC50 [3]: 1 to 10 µM

Compound: NC1(c2ccc(-c3nc4c(cc3-c3ccccc3)N(CCF)C(=O)CO4)cc2)CCC1 [Example 86, 6-(4-(1-aminocyclobutyl)phenyl)-1-(2-fluoroethyl)-7-phenyl-1H-pyrido[2,3-b][1,4]oxazin-2(3H)-one]
- IC50 [1]: 1 to 10 µM
- IC50 [2]: 0.1 to 1 µM
- IC50 [3]: ≤ 0.1 µM

Other lines, results leading:

- IC50 [1]: 1 to 10 µM
- IC50 [2]: 0.1 to 1 µM
- IC50 [3]: 1 to 10 µM
Compound: CCc1nnc2n1-c1cc(-c3ccccc3)c(-c3ccc([C@]4(N)C[C@@H](O)C4)cc3)nc1OC2 [Example 136, (1s,3s)-3-Amino-3-(4-(1-ethyl-8-phenyl-4H-pyrido[2,3-b][1,2,4]triazolo[4,3-d][1,4]oxazin-7-yl)phenyl)cyclobutanol]

- IC50 [1]: 1 to 10 µM
- IC50 [2]: 0.1 to 1 µM
- IC50 [3]: 1 to 10 µM
Compound: NC1(c2ccc(-c3nc4c(cc3-c3ccccc3)-n3c(Br)nnc3CO4)cc2)CCC1 [Example 92, 1-(4-(1-bromo-8-phenyl-4H-pyrido[2,3-b][1,2,4]triazolo[4,3-d][1,4]oxazin-7-yl)phenyl)cyclobutanamine]

- IC50 [1]: 1 to 10 µM
- IC50 [2]: ≤ 0.1 µM
- IC50 [3]: 0.1 to 1 µM
Compound: Nc1nnc2n1-c1cc(-c3ccccc3)c(-c3ccc(C4(N)CCC4)cc3)nc1OC2 [Example 50, 7-(4-(1-aminocyclobutyl)phenyl)-8-phenyl-4H-pyrido[2,3-b][1,2,4]triazolo[4,3-d][1,4]oxazin-1-amine]

- IC50 [1]: 1 to 10 µM
- IC50 [2]: 1 to 10 µM
- IC50 [3]: 1 to 10 µM
Compound: NC1(c2ccc(-c3nc4c(cc3-c3ccccc3)N(Cc3cnc[nH]3)C(=O)CO4)cc2)CCC1 [Example 53, 1-((1H-imidazol-5-yl)methyl)-6-(4-(1-aminocyclobutyl)phenyl)-7-phenyl-1H-pyrido[2,3-b][1,4]oxazin-2(3H)-one]

- IC50 [1]: 1 to 10 µM
- IC50 [2]: 0.1 to 1 µM
- IC50 [3]: 0.1 to 1 µM
Compound: CC(C)Cc1nnc2n1-c1cc(-c3ccccc3)c(-c3ccc(C4(N)CCC4)cc3)nc1OC2 [Example 115, 1-(4-(1-isobutyl-8-phenyl-4H-pyrido[2,3-b][1,2,4]triazolo[4,3-d][1,4]oxazin-7-yl)phenyl)cyclobutanamine]

- IC50 [1]: 1 to 10 µM
- IC50 [2]: 1 to 10 µM
- IC50 [3]: 1 to 10 µM
Compound: CN1C(=O)COc2nc(-c3ccc(C4(N)CCC4)cc3)c(-c3cccnc3)cc21 [Example 124, 6-(4-(1-aminocyclobutyl)phenyl)-1-methyl-7-(pyridin-3-0)-1H-pyrido[2,3-b][1,4]oxazin-2(3H)-one]

- IC50 [1]: 1 to 10 µM
- IC50 [2]: 0.1 to 1 µM
- IC50 [3]: 0.1 to 1 µM
Compound: CN1C(=O)NCc2nc(-c3ccc(C4(N)CCC4)cc3)c(-c3ccccc3)cc21 [Example 108, 6-(4-(1-aminocyclobutyl)phenyl)-1-methyl-7-phenyl-3,4-dihydropyrido[3,2-d]pyrimidin-2(1H)-one]

- IC50 [1]: 1 to 10 µM
- IC50 [2]: 0.1 to 1 µM
- IC50 [3]: 0.1 to 1 µM
Compound: N#CCCCN1C(=O)COc2nc(-c3ccc(C4(N)CCC4)cc3)c(-c3ccccc3)cc21 [Example 64, 4-(6-(4-(1-aminocyclobutyl)phenyl)-2-oxo-7-phenyl-2,3-dihydro-1H-pyrido[2,3-b][1,4]oxazin-1-yl)butanenitrile]
